# Laboratory results taken from the supplement of paper PMC6045584.
# ± gives the standard deviation of the averaged measurements.
# Key:
# [1] = compound: Cn1cc(C2=Nc3cc(NC(=O)C(N)C4CCCCC4)cc4c3C2=CNNC4=O)cn1; assay: surviving fraction relative to DMSO-only wells; higher = less growth inhibition; conditions: exposure time: 5 days
# How it was run: (§1)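 Tumour cell lines in log phase were plated in 384-well plates at 250–500 cells per well, then, after 24 hours, exposed continuously for five days to inhibitors at 0.5, 1, 5, 10, 50, 100, 500 and 1000 nM. Viability came from CellTiter-Glo luminescence, and surviving fraction is that signal normalised to the median of DMSO-only wells. Plates were read after 10 minutes at room temperature, and each line, screened three times, was kept only when replicate Pearson r was >0.7 and median Z' was >0.3.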
# AFATINIB [2] = compound: T1, CN(C)C/C=C/C(=O)Nc1cc2c(Nc3ccc(F)c(Cl)c3)ncnc2cc1O[C@H]1CCOC1 [AFATINIB]; assay: as above; conditions: exposure time: 5 days
# How it was run: as §1
# SAPACITABINE [3] = compound: T2, CCCCCCCCCCCCCCCC(=O)Nc1ccn([C@@H]2O[C@H](CO)[C@@H](O)[C@@H]2C#N)c(=O)n1 [SAPACITABINE]; assay: as above; conditions: exposure time: 5 days
# How it was run: as §1
# TIOGUANINE [4] = compound: T3, Nc1nc2[nH]cnc2c(=S)[nH]1 [TIOGUANINE]; assay: as above; conditions: exposure time: 5 days
# How it was run: as §1
# CANERTINIB [5] = compound: T4, C=CC(=O)Nc1cc2c(Nc3ccc(F)c(Cl)c3)ncnc2cc1OCCCN1CCOCC1 [CANERTINIB]; assay: as above; conditions: exposure time: 5 days
# How it was run: as §1
# SNX-5422 [6] = compound: T5, CC1(C)CC(=O)c2c(C(F)(F)F)nn(-c3ccc(C(N)=O)c(N[C@H]4CC[C@H](OC(=O)CN)CC4)c3)c2C1 [SNX-5422]; assay: as above; conditions: exposure time: 5 days
# How it was run: as §1
# BI-2536 [7] = compound: T6, CC[C@@H]1C(=O)N(C)c2cnc(Nc3ccc(C(=O)NC4CCN(C)CC4)cc3OC)nc2N1C1CCCC1 [BI-2536]; assay: as above; conditions: exposure time: 5 days
# How it was run: as §1
# MDV3100 [8] = compound: T7, CNC(=O)c1ccc(N2C(=S)N(c3ccc(C#N)c(C(F)(F)F)c3)C(=O)C2(C)C)cc1F [MDV3100]; assay: as above; conditions: exposure time: 5 days
# How it was run: as §1
# [9] = compound: Cn1cc(C2=Nc3cc(NC(=O)C(N)C4CCCCC4)cc4c3C2=CNNC4=O)cn1; assay: area under dose-response curve of surviving fraction (unscaled, Aref=0) (surviving fraction x log10(nM)); higher = more resistant; conditions: exposure time: 5 days; dose range 0.5-1000 nM
# How it was run: (§2)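 Each tumour cell line was screened three times in 384-well plates, receiving eight inhibitor concentrations from 0.5 to 1000 nM for five days. CellTiter-Glo luminescence gave viability, normalised to DMSO-only wells. Using the drc R package, surviving fractions were fitted with 3-parameter logistic dose-response curves, and the unscaled activity area over log10 dose (Aref = 0) was taken as the area under the curve.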
# AFATINIB [10] = compound: T1, AFATINIB; assay: as above; conditions: exposure time: 5 days; dose range 0.5-1000 nM
# How it was run: as §2
# SAPACITABINE [11] = compound: T2, SAPACITABINE; assay: as above; conditions: exposure time: 5 days; dose range 0.5-1000 nM
# How it was run: as §2
# TIOGUANINE [12] = compound: T3, TIOGUANINE; assay: as above; conditions: exposure time: 5 days; dose range 0.5-1000 nM
# How it was run: as §2
# CANERTINIB [13] = compound: T4, CANERTINIB; assay: as above; conditions: exposure time: 5 days; dose range 0.5-1000 nM
# How it was run: as §2
# SNX-5422 [14] = compound: T5, SNX-5422; assay: as above; conditions: exposure time: 5 days; dose range 0.5-1000 nM
# How it was run: as §2
# BI-2536 [15] = compound: T6, BI-2536; assay: as above; conditions: exposure time: 5 days; dose range 0.5-1000 nM
# How it was run: as §2
# MDV3100 [16] = compound: T7, MDV3100; assay: as above; conditions: exposure time: 5 days; dose range 0.5-1000 nM
# How it was run: as §2
test system,measurement,setting,value
HUO3N1 BONE,surviving fraction,[1]; 0.5 nM,1.01 ± 0.021
same,surviving fraction,[1]; 1 nM,0.991 ± 0.062
same,surviving fraction,[1]; 5 nM,1.02 ± 0.039
same,surviving fraction,[1]; 10 nM,1.03 ± 0.023
same,surviving fraction,[1]; 50 nM,0.975 ± 0.043
same,surviving fraction,[1]; 100 nM,0.863 ± 0.041
same,surviving fraction,[1]; 500 nM,0.504 ± 0.024
same,surviving fraction,[1]; 1000 nM,0.319 ± 0.04
same,surviving fraction,AFATINIB [2]; 0.5 nM,1.03 ± 0.034
same,surviving fraction,AFATINIB [2]; 1 nM,1 ± 0.019
same,surviving fraction,AFATINIB [2]; 5 nM,1.06 ± 0.027
same,surviving fraction,AFATINIB [2]; 10 nM,1.04 ± 0.068
same,surviving fraction,AFATINIB [2]; 50 nM,1.03 ± 0.031
same,surviving fraction,AFATINIB [2]; 100 nM,0.959 ± 0.017
same,surviving fraction,AFATINIB [2]; 500 nM,0.824 ± 0.028
same,surviving fraction,AFATINIB [2]; 1000 nM,0.631 ± 0.034
same,surviving fraction,SAPACITABINE [3]; 0.5 nM,0.915 ± 0.032
same,surviving fraction,SAPACITABINE [3]; 1 nM,0.908 ± 0.036
same,surviving fraction,SAPACITABINE [3]; 5 nM,0.931 ± 0.037
same,surviving fraction,SAPACITABINE [3]; 10 nM,0.935 ± 0.024
same,surviving fraction,SAPACITABINE [3]; 50 nM,0.886 ± 0.056
same,surviving fraction,SAPACITABINE [3]; 100 nM,0.766 ± 0.056
same,surviving fraction,SAPACITABINE [3]; 500 nM,0.528 ± 0.012
same,surviving fraction,SAPACITABINE [3]; 1000 nM,0.438 ± 0.019
same,surviving fraction,TIOGUANINE [4]; 0.5 nM,0.992 ± 0.071
same,surviving fraction,TIOGUANINE [4]; 1 nM,1.02 ± 0.098
same,surviving fraction,TIOGUANINE [4]; 5 nM,1.1 ± 0.059
same,surviving fraction,TIOGUANINE [4]; 10 nM,0.98 ± 0.058
same,surviving fraction,TIOGUANINE [4]; 50 nM,1.02 ± 0.019
same,surviving fraction,TIOGUANINE [4]; 100 nM,1.06 ± 0.049
same,surviving fraction,TIOGUANINE [4]; 500 nM,1.06 ± 0.055
same,surviving fraction,TIOGUANINE [4]; 1000 nM,1.02 ± 0.018
same,surviving fraction,CANERTINIB [5]; 0.5 nM,0.949 ± 0.063
same,surviving fraction,CANERTINIB [5]; 1 nM,0.949 ± 0.015
same,surviving fraction,CANERTINIB [5]; 5 nM,0.965 ± 0.069
same,surviving fraction,CANERTINIB [5]; 10 nM,0.943 ± 0.069
same,surviving fraction,CANERTINIB [5]; 50 nM,1 ± 0.027
same,surviving fraction,CANERTINIB [5]; 100 nM,0.995 ± 0.02
same,surviving fraction,CANERTINIB [5]; 500 nM,0.808 ± 0.03
same,surviving fraction,CANERTINIB [5]; 1000 nM,0.701 ± 0.022
same,surviving fraction,SNX-5422 [6]; 0.5 nM,0.99 ± 0.02
same,surviving fraction,SNX-5422 [6]; 1 nM,1.03 ± 0.021
same,surviving fraction,SNX-5422 [6]; 5 nM,1.07 ± 0.032
same,surviving fraction,SNX-5422 [6]; 10 nM,1.1 ± 0.06
same,surviving fraction,SNX-5422 [6]; 50 nM,0.767 ± 0.023
same,surviving fraction,SNX-5422 [6]; 100 nM,0.503 ± 0.026
same,surviving fraction,SNX-5422 [6]; 500 nM,0.391 ± 0.02
same,surviving fraction,SNX-5422 [6]; 1000 nM,0.319 ± 0.0095
same,surviving fraction,BI-2536 [7]; 0.5 nM,0.991 ± 0.0085
same,surviving fraction,BI-2536 [7]; 1 nM,0.994 ± 0.071
same,surviving fraction,BI-2536 [7]; 5 nM,0.6 ± 0.1
same,surviving fraction,BI-2536 [7]; 10 nM,0.242 ± 0.035
same,surviving fraction,BI-2536 [7]; 50 nM,0.211 ± 0.0099
same,surviving fraction,BI-2536 [7]; 100 nM,0.204 ± 0.022
same,surviving fraction,BI-2536 [7]; 500 nM,0.265 ± 0.014
same,surviving fraction,BI-2536 [7]; 1000 nM,0.303 ± 0.016
same,surviving fraction,MDV3100 [8]; 0.5 nM,1.01 ± 0.018
same,surviving fraction,MDV3100 [8]; 1 nM,0.989 ± 0.025
same,surviving fraction,MDV3100 [8]; 5 nM,1.01 ± 0.044
same,surviving fraction,MDV3100 [8]; 10 nM,1.03 ± 0.044
same,surviving fraction,MDV3100 [8]; 50 nM,1.06 ± 0.054
same,surviving fraction,MDV3100 [8]; 100 nM,1.02 ± 0.041
same,surviving fraction,MDV3100 [8]; 500 nM,1.01 ± 0.069
same,surviving fraction,MDV3100 [8]; 1000 nM,1.01 ± 0.019
same,area under dose-response curve,[9],2.88
same,area under dose-response curve,AFATINIB [10],3.17
same,area under dose-response curve,SAPACITABINE [11],2.73
same,area under dose-response curve,TIOGUANINE [12],3.41
same,area under dose-response curve,CANERTINIB [13],3.18
same,area under dose-response curve,SNX-5422 [14],2.53
same,area under dose-response curve,BI-2536 [15],1.56
same,area under dose-response curve,MDV3100 [16],3.37
